Data set [1] addresses GRPR (Homo sapiens, UniProt P30550). Put plainly: biochemical. Here is the method: All experiments were performed in triplicate and 1 × 10^6 cells/dish were seeded one day before the experiment.
The nature of data set [2]: in vivo. To be noted: mouse, iv, 40 pmol, Uptake, 40 pmol i.v.; for tissue uptake at 0.5 h: 0.5 h after injection; for tissue uptake at 3 h: 3 h after injection; for tissue uptake at 24 h: 24 h after injection. As for the experimental part:
(§1) Animal studies were planned and performed in agreement with EU Directive 2010/63/EU for animal experiments and Swedish national legislation concerning protection of laboratory animals. Experiments were approved by the Ethics Committee for Animal Research in Uppsala (C4/16, 26 February 2016). Biodistribution studies were performed in female BALB/C nu/nu mice purchased from Scanbur A/S (Karlslunde, Denmark). GRPR-expressing xenografts were established by subcutaneous injection of 5 × 10^6 PC-3 cells/mouse in the right hind leg of mice 3 weeks before the experiment. The animals were randomized into groups of four mice for each data point.
(§2) Mice were euthanized followed by dislocation of their neck at 0.5 h after injection and blood samples were collected by heart puncture. At 3 and 24 h after injection, mice were euthanized by an intraperitoneal injection of anaesthetic solution (20 µL of solution per gram of body weight: Ketalar, 10 mg/mL; Rompun, 1 mg/mL) followed by heart puncture. Salivary glands, thyroid, lung, liver, spleen, pancreas, stomach, small intestine, kidneys, tumour, muscle, and bone were collected and weighed. The organ radioactivity was measured in a gamma-counter and uptake values of organs were calculated as percentage of injected dose per gram tissue (% ID/g). To test the in vivo binding specificity, a group of mice was co-injected with 7.5 nmol of non-labelled peptide (NOTA-PEG4-RM26), and biodistribution was measured at 0.5 h after injection.

Data set [3] concerns GRPR-expressing PC-3 tumour xenograft. Put plainly: in vivo. The conditions noted are these: 0.5 h after injection; 40 pmol i.v.; non-blocked. Here is the method:
as §1, §2

Data set [4] shares this test system. The conditions noted are these: 0.5 h after injection; co-injection of non-labelled NOTA-PEG4-RM26. As for the experimental part:
as §1
as §2, with “Salivary glands, thyroid, lung, liver, spleen, pancreas, stomach, small intestine, kidneys, tumour, muscle, and bone were collected and weighed.” left out

The procedure of data set [5]:
Lipophilicity was determined as the logarithm of partition coefficient, logP, of the radiolabelled compound between n-octanol and water. To determine the lipophilicity of both radioconjugates, 500 µL of n-octanol was added to a tube containing the same volume of Milli-Q water. 1 pmol (10 kBq) of radioconjugate was added. The mixture was vigorously vortexed for 1–2 min and then centrifuged. Aliquots of 100 μL were taken from each phase and their radioactivity was measured by an automated gamma-counter. The partition coefficient was calculated as the average log of a ratio of the radioactivity in organic and aqueous fractions. Each measurement was repeated in triplicate.

Data set [6] has as its system GRPR. Further details: method as in PMID 16818949, PMID 7876231. The conditions noted are these: within 20–40 min; cited from earlier work.
Setting [7] is: small intestine, small intestine.

Marks after values point to notes of the source that are not given here. Where no end group is shown, it is not given here.

The source of these data is paper PMC6724035, “Evaluation of Tumor-Targeting Properties of an Antagonistic Bombesin Analogue RM26 Conjugated with a Non-Residualizing Radioiodine Label Comparison with a Radiometal-Labelled Counterpart” (Pharmaceutics, 2019).

Sequence of GRPR (Homo sapiens, UniProt P30550) (P30550 whole entry): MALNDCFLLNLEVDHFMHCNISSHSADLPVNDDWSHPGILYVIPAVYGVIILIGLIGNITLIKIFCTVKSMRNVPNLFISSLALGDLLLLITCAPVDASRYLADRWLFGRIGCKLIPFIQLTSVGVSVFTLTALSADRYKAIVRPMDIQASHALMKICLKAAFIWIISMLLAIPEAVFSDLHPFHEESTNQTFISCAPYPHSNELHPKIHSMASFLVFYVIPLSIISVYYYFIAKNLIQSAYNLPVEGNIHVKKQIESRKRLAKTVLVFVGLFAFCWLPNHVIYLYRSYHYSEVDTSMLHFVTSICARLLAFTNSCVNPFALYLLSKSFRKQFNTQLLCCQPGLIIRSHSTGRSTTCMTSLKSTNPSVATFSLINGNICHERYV

Molecule `CC(C)C[C@H](NC(=O)C[C@H](O)[C@H](CC(C)C)NC(=O)[C@H](Cc1c[nH]cn1)NC(=O)CNC(=O)[C@@H](NC(=O)[C@H](C)NC(=O)[C@H](Cc1c[nH]c2ccccc12)NC(=O)[C@H](CCC(N)=O)NC(=O)[C@@H](Cc1ccccc1)NC(=O)COCCOCCNC(=O)[C@@H](N)Cc1ccc(O)cc1)C(C)C)C(N)=O` [Tyr-PEG2-RM26, Tyrosine-PEG2-[D-Phe^6, Sta^13, Leu^14] bombesin[6–14]] had an IC50 in data set [1] of 1.7 ± 0.3 nM.

As to `CC(C)C[C@H](NC(=O)C[C@H](O)[C@H](CC(C)C)NC(=O)[C@H](Cc1c[nH]cn1)NC(=O)CNC(=O)[C@@H](NC(=O)[C@H](C)NC(=O)[C@H](Cc1c[nH]c2ccccc12)NC(=O)[C@H](CCC(N)=O)NC(=O)[C@@H](Cc1ccccc1)NC(=O)COCCOCCNC(=O)CN1CCN(CC(=O)O)CCN(CC(=O)O)CCN(CC(=O)O)CC1)C(C)C)C(N)=O` [[^111In]In-DOTA-PEG2-RM26, metal not drawn, reference compound], the tissue uptake at 0.5 h in data set [2] (blood, blood) amounted to 2.1 ± 0.8 %ID/g; in data set [2] (bone, bone) it was 0.6 ± 0.3 %ID/g; in data set [2] (kidney, kidney), 9.1 ± 2.9 %ID/g; in data set [2] (liver, liver), 0.8 ± 0.2 %ID/g; in data set [2] (lung, lung) it was 1.8 ± 0.4 %ID/g; in data set [2] (muscle, muscle) it was 0.4 ± 0.1 %ID/g. For the same molecule, the tissue uptake at 0.5 h in data set [2] (pancreas, pancreas) came to 6.5 ± 1.4 %ID/g; in data set [2] (salivary gland, salivary gland), 0.8 ± 0.2 %ID/g; in data set [2] (setting [7]), 1.5 ± 0.5 %ID/g; in data set [2] (spleen, spleen) it was 0.6 ± 0.2 %ID/g; in data set [2] (stomach, stomach), 2.9 ± 1.1 %ID/g; in data set [2] (thyroid, thyroid), 1.1 ± 0.5 %ID/g. In data set [2] (tumour, tumour, non-blocked), this molecule registered a tissue uptake at 0.5 h of 13 ± 5 %ID/g. For the same molecule, the tissue uptake at 3 h turned out to be 0.03 %ID/g in data set [2] (blood, blood); 0.05 ± 0.02 %ID/g in data set [2] (bone, bone); 2.4 ± 0.3 %ID/g in data set [2] (kidney, kidney); 0.2 %ID/g in data set [2] (liver, liver); 0.1 %ID/g in data set [2] (lung, lung); 0.02 %ID/g in data set [2] (muscle, muscle). In addition, the tissue uptake at 3 h in data set [2] (pancreas, pancreas) came out at 0.2 %ID/g; in data set [2] (salivary gland, salivary gland), 0.07 ± 0.02 %ID/g; in data set [2] (setting [7]) it was 0.2 ± 0.1 %ID/g; in data set [2] (spleen, spleen), 0.1 %ID/g; in data set [2] (thyroid, thyroid), 0.1 %ID/g; in data set [2] (tumour, tumour) it was 9.6 ± 0.6 %ID/g. Moreover, the tissue uptake at 24 h in data set [2] (blood, blood) turned out to be 0.006 ± 0.002 %ID/g; in data set [2] (liver, liver), 0.1 %ID/g; in data set [2] (tumour, tumour), 3.6 ± 1.3 %ID/g. Also, in data set [3], the “Uptake, tumour” value is on record as 13.2 ± 4.8 ^a,h % ID/g. Further, the “Uptake in pancreas, blocked vs non-blocked group” value in data set [4] was “significant (p < 0.05) reduction”. In addition, the log partition coefficient (logP) in data set [5] is -2.6 ± 0.4.

“[^125I]I-GRP: agonistic radioiodinated gastrin-releasing peptide (VPLPAGGGTVLTKMYPRGNHWAVGHLM; ends and bridges not checked; also: 125I radioiodination, position not given here; UniProt P07492 24-50, looked up)”: the Internalization in data set [6] is listed as 75–80%.

In general, IC50 refers to the point on the concentration scale where inhibition reaches its midpoint. What is called tissue uptake is the percentage of the injected dose found per gram of tissue. Lower therefore signals low uptake. In general, logP refers to the decadic logarithm of the partition coefficient of the neutral form, usually between octanol and water.
